Experimental data reported in patent publication US20260125378A2, “Heterocyclic Compounds” (BeOne Medicines I GmbH, priority 2023, published 2026).

Tests used:
[1] = target: T1, Full length DGKα (D21-10BG, SignalChem) (Homo sapiens, UniProt P23743); experiment: Biochemical DGK IC50 assay (ADP-Glo, lipid micelle substrate), DGKα; settings: 1 hour preincubation, 1 hour reaction, room temperature
T1 construct: Full length DGKα (D21-10BG, SignalChem); purchased SignalChem D21-10BG
Outline: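 ADP-Glo luminescence quantified ADP produced after a 1 h room-temperature reaction of full-length DGKα on DAG/PS micelles, in HEPES buffer containing MgCl2, CaCl2, vanadate, BSA and Tween-20. IC50 values derive from activity inhibition over a compound concentration series.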

[2] = target: T2, Full length DGKζ (in-house protein M1-V929) (Homo sapiens, UniProt Q13574); experiment: Biochemical DGK IC50 assay (ADP-Glo, lipid micelle substrate), DGKζ; settings: 1 hour preincubation, 1 hour reaction, room temperature
T2 construct: His (N); TEV site (N); made in house; host or cells: Sf9 insect cells (Bac-to-Bac baculovirus)
T2 sequence (Q13574 1-929 isoform Q13574-4): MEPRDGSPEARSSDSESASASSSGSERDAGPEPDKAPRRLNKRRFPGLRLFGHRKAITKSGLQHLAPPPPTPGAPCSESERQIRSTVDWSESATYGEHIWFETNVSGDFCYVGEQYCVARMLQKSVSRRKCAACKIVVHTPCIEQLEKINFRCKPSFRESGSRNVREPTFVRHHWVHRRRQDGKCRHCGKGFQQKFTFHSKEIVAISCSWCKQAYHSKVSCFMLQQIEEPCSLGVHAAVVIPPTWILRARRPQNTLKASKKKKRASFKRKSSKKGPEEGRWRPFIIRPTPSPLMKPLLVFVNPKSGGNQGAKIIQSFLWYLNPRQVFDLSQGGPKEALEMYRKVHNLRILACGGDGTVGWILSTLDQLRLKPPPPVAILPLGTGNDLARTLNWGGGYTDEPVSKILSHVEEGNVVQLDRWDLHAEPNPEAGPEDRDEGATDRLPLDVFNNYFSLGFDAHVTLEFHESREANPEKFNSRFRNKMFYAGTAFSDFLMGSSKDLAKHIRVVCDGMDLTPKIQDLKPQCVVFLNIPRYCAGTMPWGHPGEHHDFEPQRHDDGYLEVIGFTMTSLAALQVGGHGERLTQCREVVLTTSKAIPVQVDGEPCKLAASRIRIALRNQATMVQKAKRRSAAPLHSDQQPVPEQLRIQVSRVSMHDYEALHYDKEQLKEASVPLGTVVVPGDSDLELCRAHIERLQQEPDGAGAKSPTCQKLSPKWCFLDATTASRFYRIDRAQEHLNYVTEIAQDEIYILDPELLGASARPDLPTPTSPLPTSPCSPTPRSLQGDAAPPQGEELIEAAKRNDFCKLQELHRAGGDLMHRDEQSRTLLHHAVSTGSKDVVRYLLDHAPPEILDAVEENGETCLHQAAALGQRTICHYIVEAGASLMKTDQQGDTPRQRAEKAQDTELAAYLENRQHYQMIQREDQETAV
Outline: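 Enzyme: full-length human DGKζ M1-V929, produced in baculovirus-infected Sf9 cells; substrate DAG/PS micelles. Buffer 50 mM HEPES, 10 mM MgCl2, 0.01 mM CaCl2, 0.1 mM Na3VO4.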

T1 sequence (P23743 whole entry): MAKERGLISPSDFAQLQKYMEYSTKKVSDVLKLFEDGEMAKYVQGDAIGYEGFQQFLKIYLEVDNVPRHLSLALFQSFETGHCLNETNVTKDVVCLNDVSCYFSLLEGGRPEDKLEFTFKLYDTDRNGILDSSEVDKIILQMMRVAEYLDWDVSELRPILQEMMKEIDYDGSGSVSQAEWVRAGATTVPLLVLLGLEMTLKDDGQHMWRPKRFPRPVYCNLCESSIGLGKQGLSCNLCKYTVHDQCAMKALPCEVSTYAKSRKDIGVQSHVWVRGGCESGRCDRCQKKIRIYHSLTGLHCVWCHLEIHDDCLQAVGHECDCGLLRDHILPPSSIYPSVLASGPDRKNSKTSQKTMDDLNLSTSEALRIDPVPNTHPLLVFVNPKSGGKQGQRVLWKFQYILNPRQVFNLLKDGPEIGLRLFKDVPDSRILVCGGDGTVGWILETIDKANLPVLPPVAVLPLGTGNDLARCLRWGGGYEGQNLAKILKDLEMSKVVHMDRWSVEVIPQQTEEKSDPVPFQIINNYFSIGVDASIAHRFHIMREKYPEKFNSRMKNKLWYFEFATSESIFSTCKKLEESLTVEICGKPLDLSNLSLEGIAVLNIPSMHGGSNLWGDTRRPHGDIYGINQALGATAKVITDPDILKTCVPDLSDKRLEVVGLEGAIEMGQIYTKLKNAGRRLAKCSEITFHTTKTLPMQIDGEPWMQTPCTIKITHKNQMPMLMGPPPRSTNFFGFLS

Row | Structure (SMILES) | IC50 [1] | IC50 [2]
1 | CCn1c(CC#N)nc2c(N3C[C@@H](C)N(C(C)c4cccc(N5CCOCC5)c4)C[C@@H]3C)nc(=O)n(C)c21 (stereo partly drawn) [Compound A141, 2-(6-((2S,5R)-2,5-dimethyl-4-(1-(3-morpholinophenyl)ethyl)piperazin-1-yl)-9-ethyl-3-methyl-2-oxo-3,9-dihydro-2H-purin-8-yl)acetonitrile] | > 150 µM | 1.29 µM
2 | COCc1cc(F)ccc1C(C)N1C[C@H](C)N(c2nc(=O)n(C)c3c2nc(CC#N)n3C)C[C@H]1C (single isomer, unassigned) [Compound A27a] | > 10 µM | 0.569 µM
3 | CC[C@@H]1CN(c2nc(=O)n(C)c3c2nc(CC#N)n3CC)[C@@H](C)CN1C(C)c1ccc2c(n1)OC(C)(C)CO2 (single isomer, unassigned) [Compound A158a] | 61.9 µM | 0.008 µM
4 | CCc1nc2cc(C(C)N3C[C@H](C)N(c4nc(=O)n(C)c5c4nc(CC#N)n5CC)C[C@H]3C)ccc2s1 (single isomer, unassigned) [Compound A95a] | 24.7 µM | 0.011 µM
5 | CCn1c(CC#N)nc2c(N3C[C@@H](C)N(C(C)c4ccc5c(c4F)OC(C)(C)O5)C[C@@H]3C)nc(=O)n(C)c21 (single isomer, unassigned) [Compound A175b] | 21.4 µM | 0.004 µM
6 | CCn1c(CC#N)nc2c(N3C[C@@H](C)N(C(C)c4cccc(C(C)C)n4)C[C@@H]3C)nc(=O)n(C)c21 (stereo partly drawn) [Compound A123, 2-(9-ethyl-6-((2S,5R)-4-(1-(6-isopropylpyridin-2-yl)ethyl)-2,5-dimethylpiperazin-1-yl)-3-methyl-2-oxo-3,9-dihydro-2H-purin-8-yl)acetonitrile] | 128 µM | 0.049 µM
7 | CCn1c(CC#N)nc2c(N3C[C@@H](C)N(C(C)c4ccc5c(n4)OC(C)(C)CO5)C[C@@H]3C)c(F)c(=O)n(C)c21 (stereo partly drawn) [Compound A21, 2-(7-((2S,5R)-4-(1-(3,3-dimethyl-2,3-dihydro-[1,4]dioxino[2,3-b]pyridin-6-yl)ethyl)-2,5-dimethylpiperazin-1-yl)-3-ethyl-6-fluoro-4-methyl-5-oxo-4,5-dihydro-3H-imidazo[4,5-b]pyridin-2-yl)acetonitrile] | > 150 µM | 0.061 µM
8 | CCn1c(CC#N)nc2c(N3C[C@@H](C)N(C(C)c4ccc5c(c4F)OC(C)(C)O5)C[C@@H]3C)c(F)c(=O)n(C)c21 (single isomer, unassigned) [Compound A190a] | > 150 µM | 0.003 µM
9 | CCn1c(CC#N)nc2c(N3C[C@@H](C)N(C(C)c4ccc(C(F)(F)F)cc4)C[C@@H]3C)nc(=O)n(C)c21 (stereo partly drawn) [Compound A40, 2-(6-((2S,5R)-2,5-dimethyl-4-(1-(4-(trifluoromethyl)phenyl)ethyl)piperazin-1-yl)-9-ethyl-3-methyl-2-oxo-3,9-dihydro-2H-purin-8-yl)acetonitrile] | 25.9 µM | 0.398 µM
10 | CCn1c(CC#N)nc2c(N3C[C@@H](C)N(C(C)c4cccc(C(F)(F)F)c4)C[C@@H]3C)nc(=O)n(C)c21 (mixture of isomers) [Compound A42, 2-(6-((2S,5R)-2,5-dimethyl-4-(1-(3-(trifluoromethyl)phenyl)ethyl)piperazin-1-yl)-9-ethyl-3-methyl-2-oxo-3,9-dihydro-2H-purin-8-yl)acetonitrile] | 61.9 µM | 0.042 µM
11 | CCn1c(CC#N)nc2c(N3C[C@@H](C)N(C(C)c4cc(F)c5c(n4)OC(C)(C)CO5)C[C@@H]3C)nc(=O)n(C)c21 (single isomer, unassigned) [Compound A163a] | > 150 µM | 0.013 µM
12 | CCn1c(CC#N)nc2c(N3C[C@@H](C)N(C(C)c4ccc5c(n4)C(F)(F)CCO5)C[C@@H]3C)nc(=O)n(C)c21 (stereo partly drawn) [Compound A102, 2-(6-((2S,5R)-4-(1-(4,4-difluoro-3,4-dihydro-2H-pyrano[3,2-b]pyridin-6-yl)ethyl)-2,5-dimethylpiperazin-1-yl)-9-ethyl-3-methyl-2-oxo-3,9-dihydro-2H-purin-8-yl)acetonitrile] | > 150 µM | 0.037 µM
13 | CCn1c(CC#N)nc2c(N3C[C@@H](C)N(C(C)c4cccc(C(C)(C)O)c4)C[C@@H]3C)nc(=O)n(C)c21 (stereo partly drawn) [Compound A111, 2-(9-ethyl-6-((2S,5R)-4-(1-(3-(2-hydroxypropan-2-yl)phenyl)ethyl)-2,5-dimethylpiperazin-1-yl)-3-methyl-2-oxo-3,9-dihydro-2H-purin-8-yl)acetonitrile] | > 150 µM | 0.771 µM
14 | CCn1c(CC#N)nc2c(N3C[C@@H](C)N(C(C)c4ccc5ncc(C(F)(F)F)nc5c4)C[C@@H]3C)nc(=O)n(C)c21 (stereo partly drawn) [Compound A54, 2-(6-((2S,5R)-2,5-dimethyl-4-(1-(3-(trifluoromethyl)quinoxalin-6-yl)ethyl)piperazin-1-yl)-9-ethyl-3-methyl-2-oxo-3,9-dihydro-2H-purin-8-yl)acetonitrile] | > 150 µM | 0.037 µM
15 | COC[C@H]1CN(C(C)c2ccc3ncc(C)nc3c2)[C@H](C)CN1c1nc(=O)n(C)c2c1nc(CC#N)n2C (single isomer, unassigned) [Compound A13b] | > 150 µM | 0.054 µM
16 | COc1cc(F)ccc1C(C)N1C[C@H](C)N(c2nc(=O)n(C)c3c2nc(CC#N)n3C)C[C@H]1C (single isomer, unassigned) [Compound A24b] | 131 µM | 0.042 µM
17 | CC[C@H]1CN(C(C)c2ccc3c(c2)OC(C)(C)CO3)[C@H](CC)CN1c1nc(=O)n(C)c2c1nc(CC#N)n2C (single isomer, unassigned) [Compound A64a] | 5.28 µM | 0.00088 µM
18 | CCn1c(CC#N)nc2c(N3C[C@@H](C)N(C(C)c4cccc(OC(C)C)n4)C[C@@H]3C)nc(=O)n(C)c21 (single isomer, unassigned) [Compound A117b] | 145 µM | 0.075 µM
19 | Cc1cnc2ccc(C(C)N3C[C@H](C)N(c4c(F)c(=O)n(C)c5c4nc(CC#N)n5C)C[C@H]3C)cc2n1 (single isomer, unassigned) [Compound A23b] | 16.2 µM | 0.094 µM
20 | CCn1c(CC#N)nc2c(N3C[C@@H](C)N(C(C)c4cccc(C(C)C)c4)C[C@@H]3C)nc(=O)n(C)c21 (mixture of isomers) [Compound A108, 2-(9-ethyl-6-((2S,5R)-4-(1-(3-isopropylphenyl)ethyl)-2,5-dimethylpiperazin-1-yl)-3-methyl-2-oxo-3,9-dihydro-2H-purin-8-yl)acetonitrile] | 95.1 µM | 0.032 µM
21 | Cc1cnc2ccc(C(C)N3C[C@H](C)N(c4nc(=O)n(C)c5c4nc(CC#N)n5C)C[C@H]3C)cc2n1 (stereo partly drawn) [Compound A49, 2-(6-((2S,5R)-2,5-dimethyl-4-(1-(3-methylquinoxalin-6-yl)ethyl)piperazin-1-yl)-3,9-dimethyl-2-oxo-3,9-dihydro-2H-purin-8-yl)acetonitrile] | 123 µM | 0.035 µM
22 | CCn1c(CC#N)nc2c(N3C[C@@H](C)N(C(C)c4ccnc(-c5ccccc5)c4)C[C@@H]3C)nc(=O)n(C)c21 (stereo partly drawn) [Compound A144, 2-(6-((2S,5R)-2,5-dimethyl-4-(1-(2-phenylpyridin-4-yl)ethyl)piperazin-1-yl)-9-ethyl-3-methyl-2-oxo-3,9-dihydro-2H-purin-8-yl)acetonitrile] | 74.1 µM | 0.06 µM
23 | CCn1c(CC#N)nc2c(N3C[C@@H](C)N(C(C)c4ccc(F)cc4C(F)(F)F)C[C@@H]3C)nc(=O)n(C)c21 (single isomer, unassigned) [Compound A35a] | > 150 µM | 2.76 µM
24 | CC(c1ccc2c(c1)OCCO2)N1C[C@H](C)N(c2c(F)c(=O)n(C)c3c2nc(CC#N)n3C)C[C@H]1C (single isomer, unassigned) [Compound A18b] | 6.38 µM | 0.032 µM
25 | CCn1c(CC#N)nc2c(N3C[C@@H](C)N(C(C)c4cc(F)cc(C(F)F)c4)C[C@@H]3C)nc(=O)n(C)c21 (stereo partly drawn) [Compound A38, 2-(6-((2S,5R)-4-(1-(3-(difluoromethyl)-5-fluorophenyl)ethyl)-2,5-dimethylpiperazin-1-yl)-9-ethyl-3-methyl-2-oxo-3,9-dihydro-2H-purin-8-yl)acetonitrile] | 143 µM | 0.165 µM
26 | CCn1c(CC#N)nc2c(N3C[C@@H](C)N(C(C)c4ccc5c(c4)OC(C)(C)O5)C[C@@H]3C)c(F)c(=O)n(C)c21 (stereo partly drawn) [Compound A188, 2-(7-((2S,5R)-4-(1-(2,2-dimethylbenzo[d][1,3]dioxol-5-yl)ethyl)-2,5-dimethylpiperazin-1-yl)-3-ethyl-6-fluoro-4-methyl-5-oxo-4,5-dihydro-3H-imidazo[4,5-b]pyridin-2-yl)acetonitrile] | > 150 µM | 0.074 µM
27 | COc1cc(F)ccc1C(C)N1C[C@H](C)N(c2c(F)c(=O)n(C)c3c2nc(CC#N)n3C)C[C@H]1C (stereo partly drawn) [Compound A16, 2-(6-fluoro-7-((2S,5R)-4-(1-(4-fluoro-2-methoxyphenyl)ethyl)-2,5-dimethylpiperazin-1-yl)-3,4-dimethyl-5-oxo-4,5-dihydro-3H-imidazo[4,5-b]pyridin-2-yl)acetonitrile] | 58.2 µM | 0.024 µM
28 | CC(c1ccc(F)cc1C(F)(F)F)N1C[C@H](C)N(c2cc(=O)n(C)c3[nH]c(CC#N)nc23)C[C@H]1C (single isomer, unassigned) [Compound A9a] | > 10 µM | 8.59 µM
29 | CC(c1ccc2c(c1)OC(F)(F)C(F)(F)O2)N1C[C@H](C)N(c2nc(=O)n(C)c3c2nc(CC#N)n3C)C[C@H]1C (single isomer, unassigned) [Compound A79b] | 14.8 µM | 0.529 µM
